Measurements published in patent US7202213B2 (Novo Nordisk A/S, priority 2000, dated 2007).

Tests used:
[1] = target: T1, human PPAR α (Homo sapiens, UniProt Q07869); assay: In vitro PPAR alpha transactivation assay (GAL4-DBD-PPAR-LBD luciferase reporter in HEK293 cells); assay type: cell-based; details: for EC50: HEK293 cells, 24 h with compound, five concentrations 0.01 to 30 μM, means of at least three experiments, read-out: In vitro activation PPAR α EC50; for In vitro activation PPAR α % max: fold activation relative to maximum activation obtained with Wy14643 (approx. 20 fold corresponded to 100%)
T1 construct: PPARα: aa 167-C-terminus; PPARγ: aa 165-C-terminus; expressed in transfected cells; host or cells: HEK293
T1 sequence (Q07869 167-468 limits assumed): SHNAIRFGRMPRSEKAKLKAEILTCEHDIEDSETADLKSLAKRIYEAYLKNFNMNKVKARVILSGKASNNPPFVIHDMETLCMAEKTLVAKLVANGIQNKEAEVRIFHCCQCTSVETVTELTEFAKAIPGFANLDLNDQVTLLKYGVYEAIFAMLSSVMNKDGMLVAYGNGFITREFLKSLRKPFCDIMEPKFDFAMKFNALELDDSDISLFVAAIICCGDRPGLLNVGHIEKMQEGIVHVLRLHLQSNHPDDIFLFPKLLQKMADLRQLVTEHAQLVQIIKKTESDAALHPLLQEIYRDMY
From the text: (§1) The PPAR gene transcription activation assays were based on transient transfection into human HEK293 cells of two plasmids encoding a chimeric test protein and a reporter protein respectively. The chimeric test protein was a fusion of the DNA binding domain (DBD) from the yeast GAL4 transcription factor to the ligand binding domain (LBD) of the human PPAR proteins. The PPAR LBD harbored in addition to the ligand binding pocket also the native activation domain (activating function 2=AF2) allowing the fusion protein to function as a PPAR ligand dependent transcription factor. The GAL4 DBD will force the fusion protein to bind only to Gal4 enhancers (of which none existed in HEK293 cells). The reporter plasmid contained a Gal4 enhancer driving the expression of the firefly luciferase protein. After transfection, HEK293 cells expressed the GAL4-DBD-PPAR-LBD fusion protein. The fusion protein will in turn bind to the Gal4 enhancer controlling the luciferase expression, and do nothing in the absence of ligand. Upon addition to the cells of a PPAR ligand, luciferase protein will be produced in amounts corresponding to the activation of the PPAR protein. The amount of luciferase protein is measured by light emission after addition of the appropriate substrate.
(§2) Cell culture and transfection: HEK293 cells were grown in DMEM+10% FCS. Cells were seeded in 96-well plates the day before transfection to give a confluency of 50–80% at transfection. A total of 0,8 μg DNA containing 0,64 μg pM1α/γLBD, 0,1 μg pCMVβGal, 0,08 μg pGL2Gal4DBD and 0,02 μg p[…] was transfected per well using FuGene transfection reagent according to the manufacturers instructions (Roche). Cells were allowed to express protein for 48 h followed by addition of compound.
(§3) Plasmids: Human PPAR α and γ was obtained by PCR amplification using cDNA synthesized by reverse transcription of mRNA from liver and adipose tissue respectively. Amplified cDNAs were cloned into pCR2.1 and sequenced. The ligand binding domain (LBD) of each PPAR isoform was generated by PCR(PPARα: aa 167-C-terminus; PPARγ: aa 165-C-terminus) and fused to the DNA binding domain (DBD) of the yeast transcription factor GAL4 by subcloning fragments in frame into the vector pM1 generating the plasmids pM1αLBD and pM1γLBD. Ensuing fusions were verified by sequencing.
(§4) Luciferase assay: Medium including test compound was aspirated and 100 μl PBS incl. 1 mM Mg++ and Ca++ was added to each well. The luciferase assay was performed using the LucLite kit according to the manufacturers instructions (Packard Instruments). Light emission was quantified by counting SPC mode on a Packard Instruments top-counter. To measure β-galactosidase activity 25 μl supernatant from each transfection lysate was transferred to a new microplate. β-galactosidase assays were performed in the microwell plates using a kit from Promega and read in a microplate reader. The β-galactosidase data were used to normalize (transfection efficiency, cell growth etc.) the luciferase data.
(§5) Compounds: All compounds were dissolved in DMSO and diluted 1:1000 upon addition to the cells. Compounds were tested in quadruple in five concentrations ranging form 0.01 to 30 μM. Cells were treated with compound for 24 h followed by luciferase assay. Each compound was tested in three separate experiments. EC50 values were calculated via non-linear regression using GraphPad PRISM 3.02 (GraphPad Software, San Diego, Calif.). The results were expressed as means.
(§6) Compounds were tested in at least three separate experiments in five concentrations ranging from 0.01 to 30 μM.

[2] = target: T2, human PPAR γ (Homo sapiens, UniProt P37231); assay: In vitro PPAR gamma transactivation assay (GAL4-DBD-PPAR-LBD luciferase reporter in HEK293 cells); assay type: cell-based; details: for EC50: HEK293 cells, 24 h with compound, five concentrations 0.01 to 30 μM, means of at least three experiments, read-out: In vitro activation PPAR γ EC50; for In vitro activation PPAR γ % max: fold activation relative to maximum activation obtained with rosiglitazone (approx. […] fold corresponded to 100%)
T2 construct: PPARα: aa 167-C-terminus; PPARγ: aa 165-C-terminus; expressed in transfected cells; host or cells: HEK293
T2 sequence (P37231 165-477 isoform P37231-2): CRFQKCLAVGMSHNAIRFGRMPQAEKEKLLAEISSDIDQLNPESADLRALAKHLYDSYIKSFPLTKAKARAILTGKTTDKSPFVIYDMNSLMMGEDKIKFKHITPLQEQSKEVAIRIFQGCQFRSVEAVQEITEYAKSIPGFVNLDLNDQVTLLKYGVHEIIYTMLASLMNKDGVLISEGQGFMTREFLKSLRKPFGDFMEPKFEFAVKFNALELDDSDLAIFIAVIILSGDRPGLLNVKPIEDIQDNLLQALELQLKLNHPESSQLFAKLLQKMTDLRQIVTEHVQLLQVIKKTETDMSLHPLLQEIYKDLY
From the text: as §1, §2, §3, §4, §5, §6

| SMILES | EC50 [1] | In vitro activation PPAR α % max [1] | EC50 [2] | In vitro activation PPAR γ % max [2] | Maximum activation PPAR α (fold activation) ([1]; reference maximum, corresponded to 100%) |
| --- | --- | --- | --- | --- | --- |
| CCO[C@@H](Cc1ccc(OC/C=C(\C)C#Cc2cccc(C(F)(F)F)c2)cc1)C(=O)O [Example 12, (E)-(S)-2-ethoxy-3-[4-(3-methyl-5-(3-trifluoromethyl-phenyl)-pent-2-en-4-ynyloxy)-phenyl]-propionic acid] | 50 nM | 195% | 340 nM | 105% |  |
| CCOC(Cc1ccc(OCC=C(C)C#Cc2cccc3ccccc23)cc1)C(=O)O (stereo in doubt) [Example 18, (Z)-(S)-2-ethoxy-3-[4-(3-methyl-5-(1-naphthyl)-pent-2-en-4-ynyloxy)-phenyl]-propionic acid] | 160 nM | 181% | 2670 nM | 91% |  |
| CCO[C@@H](Cc1ccc(OC/C=C/C#Cc2cc(Cl)cc(Cl)c2)cc1)C(=O)O [Example 20, (E)-(S)-2-Ethoxy-3-[4-(5-(3,5-dichloro-phenyl)-pent-2-en-4-ynyloxy)-phenyl]-propionic acid] | 40 nM | 154% | 1420 nM | 112% |  |

Other lines, results leading:

| EC50 [1] | In vitro activation PPAR α % max [1] | EC50 [2] | In vitro activation PPAR γ % max [2] | Maximum activation PPAR α (fold activation) ([1]; reference maximum, corresponded to 100%) | SMILES |
| --- | --- | --- | --- | --- | --- |
| 60 nM | 139% | 310 nM | 126% |  | CCO[C@@H](Cc1ccc(OC/C=C(\C)C#Cc2cc(Cl)cc(Cl)c2)cc1)C(=O)O [Example 8, (E)-(S)-2-ethoxy-3-[4-(3-methyl-5-(3,5-dichloro-phenyl)-pent-2-en-4-ynyloxy)-phenyl]-propionic acid] |
|  |  |  |  | approx. 20 fold | Cc1cccc(Nc2cc(Cl)nc(SCC(=O)O)n2)c1C [Wy14643, reference compound] |
